Read-outs that look alike come from different tables or passages of the source.
Tests used:
CH1/PA‐1 [1] = details: CH1/PA‐1 multicellular spheroids, 96 h drug exposure
Procedure: (§1) A549, CH1/PA‐1 and SW480 cells were grown in MEM supplemented with 10 % fetal calf serum (FCS; from Biowest), 1 mM sodium pyruvate, 4 mM L‐glutamine and 1 % v/v nonessential amino acids (from 100×solution) and L‐glutamine. HCT‐116 cells were maintained in McCoy's 5a medium supplemented with 10 % FCS and L‐glutamine. Adherent monolayer cultures were grown in 75 cm^2 flasks. For spheroid culture, A549, CH1/PA‐1 and HCT‐116 cells were harvested from culture flasks by trypsinization, resuspended in their respective supplemented medium and seeded in ultra‐low attachment round‐bottom 96‐well plates (Corning Costar) at a density of 500 viable cells per well. Plates were incubated for 96 h to allow spheroid formation prior to use for the tests. All cultures were incubated in a humidified incubator at 37 °C with 5 % CO2.
(§2) Cytotoxicity in multicellular spheroids was determined by the fluorimetric resazurin assay. […] After incubation for 96 h, 20 μL of a 440 μM resazurin sodium salt solution in PBS were added to each well, and the plates were incubated for further 16 h. Fluorescence was measured with a Synergy HT reader (BioTek) with an excitation wavelength of 530 nm and emission wavelength of 590 nm. For both assays, at least three independent experiments (or two in case of poor activity) were performed, each with triplicates per concentration level, and the 50 % inhibitory concentrations (IC50) relative to untreated controls were interpolated from concentration‐effect curves.

HCT‐116 = HCT‐116 multicellular spheroids, 96 h drug exposure
Procedure: as §1, §2

A549 [2] = details: A549 multicellular spheroids, 96 h drug exposure
Procedure: as §1, §2

SW480 cells = details: ICP‐MS, 2 h exposure, 20 μM
CH1/PA‐1 [3] = experiment: Cell cycle distribution, flow cytometry with propidium iodide; type: cell-based, human; details: for Cell cycle distribution G1, % / Cell cycle distribution G2/M, % / Cell cycle distribution S, %: 24 h, mean ± SD; for Relative change in cell cycle distribution G1, % / Relative change in cell cycle distribution G2/M, % / Relative change in cell cycle distribution S, %: difference to untreated control
Procedure: (§3) The influence of two ligands, as well as seven complexes on cell cycle distribution was tested in two of the cancer cell lines (SW480, CH1/PA‐1) by means of flow cytometry. The cell cycle distribution (G1, S, G2/M phase in %; Table S37) was investigated upon DNA staining with propidium iodide.
(§4) CH1/PA‐1 and SW480 cells were harvested by trypsinization, 8×10^4 and 1.2×10^5 cells per well were seeded into 12‐well plates, respectively. The cells were allowed to attach and resume proliferation for 24 h after the seeding. […] After continuous exposure for 24 h at 37 °C and under 5 % CO2, the cells were harvested by trypsinization and centrifuged at 300 g for 3 min. The cells were washed with PBS (1 mL) and resuspended in propidium iodine (PI) containing HSF buffer (600 μL; 0.1 % Triton X‐100, 0.1 % sodium citrate, 50 μg mL^−1 PI in PBS). After incubation overnight at 4 °C in the dark, 5×10^3 cells were measured by flow cytometry with a Millipore Guava easyCyte 8HT instrument (Luminex, USA). Data were evaluated by means of FlowJo software (Tree Star) using Watson Pragmatic algorithms.60 The fitting of the curve was chosen to keep the root mean square error between 1.0 and 2.0, alongside with good fitting visual model.

SW480 [4] = experiment: as above; type: cell-based, human; details: for Cell cycle distribution G1, % / Cell cycle distribution G2/M, % / Cell cycle distribution S, %: 24 h, mean ± SD; for Relative change in cell cycle distribution G1, % / Relative change in cell cycle distribution G2/M, % / Relative change in cell cycle distribution S, %: difference to untreated control
Procedure: as §3, §4

CH1/PA‐1 [5] = experiment: MTT cytotoxicity assay, monolayer culture; type: cell-based, human; details: CH1/PA‐1, MTT assay, exposure time 96 h, means ± SDs
Text: (§5) A549 (non‐small cell lung carcinoma), SW480 and HCT‐116 (both colon carcinoma) were kindly provided by Brigitte Marian, Institute of Cancer Research, Department of Medicine I, Medical University of Vienna, Austria. The cell line CH1/PA‐1 (ovarian teratocarcinoma) was kindly provided by Lloyd R. Kelland (CRC Centre for Cancer Therapeutics, Institute of Cancer Research, Sutton, UK). All cell culture media (including supplements) and reagents were obtained from Sigma–Aldrich, and all plasticware from StarLab, unless indicated otherwise.

SW480 [6] = experiment: MTT cytotoxicity assay, monolayer culture; type: cell-based, human
Text: as §5

A549 [7] = experiment: MTT cytotoxicity assay, monolayer culture; type: cell-based, human; details: exposure time 96 h, means ± SDs
Text: as §5

[8] = test system: human cancer cell lines CH1/PA‐1, SW480, A549; details: tested cancer cell lines
Procedure: Cytotoxicity of the compounds in monolayer cultures was determined by the colorimetric MTT assay (MTT=3‐(4,5‐dimethyl‐2‐thiazolyl)‐2,5‐diphenyl‐2H‐tetrazolium bromide). 1×10^3 CH1/PA‐1, 2×10^3 SW480 and 3×10^3 A549 cells were seeded in 100 μL supplemented MEM per well into 96‐well flat‐bottom microculture plates. […] After 96 h, the drug‐containing medium was replaced with 100 μL of RPMI 1640/MTT mixture [6 parts of RPMI 1640 medium (supplemented with 10 % heat‐inactivated fetal bovine serum and 4 mM L‐glutamine), 1 part of MTT solution in phosphate‐buffered saline (5 mg mL^−1)]. After incubation for 4 h, the mixture was replaced with 150 μL DMSO per well to dissolve the formazan product formed by viable cells. Optical densities at 550 nm (and at a reference wavelength of 690 nm) were measured with a microplate reader (ELx808, Bio‐Tek).

IC50 (CH1/PA‐1 [1]): 59000 ± 10000 nM | IC50 (HCT‐116): 62000 ± 1000 nM | IC50 (A549 [2]): 79000 ± 5000 nM | IC50 values, in words [8]: high nanomolar range
Substance: Chlorido[1‐benzyl‐2‐methyl‐3‐oxo‐κO‐pyridine‐4(1H)‐thionato‐κS](η^5‐1,2,3,4,5‐pentamethylcyclopentadienyl)rhodium(III) [Compound 5 c]
Cellular accumulation (SW480 cells): 855±66 fg/cell | Cell cycle distribution G1, % (CH1/PA‐1 [3]; CH1/PA-1, 1.25 µM): 40 ± 14% | Cell cycle distribution G2/M, % (CH1/PA‐1 [3]; CH1/PA-1, 1.25 µM): 22 ± 7% | Cell cycle distribution S, % (CH1/PA‐1 [3]; CH1/PA-1, 1.25 µM): 38 ± 7% | Relative change in cell cycle distribution G1, % (CH1/PA‐1 [3]; CH1/PA-1, 1.25 µM): 0% | Relative change in cell cycle distribution G2/M, % (CH1/PA‐1 [3]; CH1/PA-1, 1.25 µM): -2% | Relative change in cell cycle distribution S, % (CH1/PA‐1 [3]; CH1/PA-1, 1.25 µM): 2% | Cell cycle distribution G1, % (CH1/PA‐1 [3]; CH1/PA-1, 2.5 µM): 34 ± 5% | Cell cycle distribution G2/M, % (CH1/PA‐1 [3]; CH1/PA-1, 2.5 µM): 24 ± 4% | Cell cycle distribution S, % (CH1/PA‐1 [3]; CH1/PA-1, 2.5 µM): 42 ± 3% | Relative change in cell cycle distribution G1, % (CH1/PA‐1 [3]; CH1/PA-1, 2.5 µM): -6% | Relative change in cell cycle distribution G2/M, % (CH1/PA‐1 [3]; CH1/PA-1, 2.5 µM): 0% | Relative change in cell cycle distribution S, % (CH1/PA‐1 [3]; CH1/PA-1, 2.5 µM): 6% | Cell cycle distribution G1, % (CH1/PA‐1 [3]; CH1/PA-1, 5 µM): 30 ± 10% | Cell cycle distribution S, % (CH1/PA‐1 [3]; CH1/PA-1, 5 µM): 42 ± 6% | Relative change in cell cycle distribution G1, % (CH1/PA‐1 [3]; CH1/PA-1, 5 µM): -10% | Relative change in cell cycle distribution G2/M, % (CH1/PA‐1 [3]; CH1/PA-1, 5 µM): 4% | Relative change in cell cycle distribution S, % (CH1/PA‐1 [3]; CH1/PA-1, 5 µM): 6% | decrease in G1 phase (CH1/PA‐1 [3]; CH1/PA‐1 cells, 2.5 μM): 6% | Cell cycle distribution G1, % (SW480 [4]; SW480, 2.5 µM): 44 ± 10% | Cell cycle distribution G2/M, % (SW480 [4]; SW480, 2.5 µM): 20 ± 6% | Cell cycle distribution S, % (SW480 [4]; SW480, 2.5 µM): 36 ± 1% | Relative change in cell cycle distribution G1, % (SW480 [4]; SW480, 2.5 µM): -4% | Relative change in cell cycle distribution G2/M, % (SW480 [4]; SW480, 2.5 µM): 1% | Relative change in cell cycle distribution S, % (SW480 [4]; SW480, 2.5 µM): 3% | Cell cycle distribution G1, % (SW480 [4]; SW480, 5 µM): 44 ± 5% | Cell cycle distribution G2/M, % (SW480 [4]; SW480, 5 µM): 17 ± 4% | Cell cycle distribution S, % (SW480 [4]; SW480, 5 µM): 39 ± 1% | Relative change in cell cycle distribution G1, % (SW480 [4]; SW480, 5 µM): -4% | Relative change in cell cycle distribution G2/M, % (SW480 [4]; SW480, 5 µM): -2% | Relative change in cell cycle distribution S, % (SW480 [4]; SW480, 5 µM): 6% | Cell cycle distribution G1, % (SW480 [4]; SW480, 10 µM): 50 ± 2% | Cell cycle distribution G2/M, % (SW480 [4]; SW480, 10 µM): 16 ± 5% | Cell cycle distribution S, % (SW480 [4]; SW480, 10 µM): 34 ± 5% | Relative change in cell cycle distribution G1, % (SW480 [4]; SW480, 10 µM): 2% | Relative change in cell cycle distribution G2/M, % (SW480 [4]; SW480, 10 µM): -3% | Relative change in cell cycle distribution S, % (SW480 [4]; SW480, 10 µM): 1% | decrease in G1 phase (SW480 [4]; SW480 cells, at applicable concentrations): < 9% | IC50 (CH1/PA‐1 [5]): 370 ± 40 nM | IC50 (SW480 [6]; SW480, MTT assay, exposure time 96 h, means ± SDs): 280 ± 20 nM | IC50 (SW480 [6]; SW480, as listed in Table 3): 280 ± 20 nM | IC50 (A549 [7]): 720 ± 110 nM

From PMC7217150, “Synthesis, Modification, and Biological Evaluation of a Library of Novel Water‐Soluble Thiopyridone‐Based Organometallic Complexes and Their Unexpected (Biological) Behavior” (Chemistry (Weinheim an Der Bergstrasse, Germany), 2020)
